Experimental data taken from patent US6419962B1, “External skin treatment composition” (Shiseido Company, Ltd., priority 1996, dated 2002).

Test: Moisture retention effect (coefficient of rate of moisture evaporation from weight change of sample)
Assay type: physicochemical
Conditions: 50 wt % aqueous solution
Experimental: The moisture retention effect of unicellularized carrot ([…]) was studied in comparison with water, glycerin ([…]), a methanol extract of carrot ([…]), and DPG (dipropylene glycol) ([…]).
That is, 50 μl each of the above samples was placed on a chemical balance placed in a room held to 22° C. and a dry humidity of 45%. The change in weight was measured every three minutes for seven times in total. From the results, the coefficient of the rate of moisture evaporation in the sample (coefficient k of rate of moisture evaporation found as dW/dt=kW where the amount of moisture is W and the elapsed time is t, that is, logW=kt+C (C is a constant)) was calculated. […]
Note that the method of study of this moisture retention effect was the same as the method used in the above Test Example A2. […]
Note that the method of study of the moisture retention effect was the same as the method performed in the above Test Example A2.
The moisture retention effect of unicellularized iris rhizome was studied in comparison with purified water, glycerol, and an ethanol extract of iris rhizome.
That is, with the exception of the purified water, a 50 wt % aqueous solution was prepared and the coefficient of the moisture evaporation rate was found in the same way as the study of the moisture retention effect of unicellularized carrot (Test Example A2). […]

Coefficient of moisture evaporation rate: −0.0230
Compound: OCC(O)CO [Glycerol]
